Laboratory results as given in US8580832B2, “Substituted phenoxy aminothiazolones as estrogen related receptor-α modulators” (Janssen Pharmaceutica N.V., priority 2007, dated 2013).

molecular target: T1, ERR1 (also known as ERR-α or ERR-1) (Homo sapiens, UniProt P11474); assay: TR-FRET assay: disruption of co-activator peptide binding to ERR1 LBD; assay type: biochemical; settings: 6His-tagged ERR1 LBD 6 nM, GST-SRC-2 peptide 6 nM, 25° C., 4-18 hours; average of 3 independent experiments
T1 construct: the ^6His-tagged-ERR1 LBD
T1 sequence (P11474 193-421 limits assumed): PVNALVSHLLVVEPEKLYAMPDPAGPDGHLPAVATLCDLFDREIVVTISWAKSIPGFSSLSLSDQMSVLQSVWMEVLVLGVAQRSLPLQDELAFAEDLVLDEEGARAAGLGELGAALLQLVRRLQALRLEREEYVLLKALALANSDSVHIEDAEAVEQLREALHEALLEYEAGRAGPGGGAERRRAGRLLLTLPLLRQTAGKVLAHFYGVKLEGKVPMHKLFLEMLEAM
How it was run: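 The 6His-ERR1 LBD and a GST-hSRC2 co-activator peptide were detected by α-GST Eu cryptate and α-6His-XL665 TR-FRET. Buffer was 25 mM Tris pH 8, 2.5 mM Hepes, 20 mM KCl, 1 mM DTT, 0.05 mg/mL BSA, equilibrated 4-18 h at 25° C. Dose-response curves were fitted hyperbolically and averaged over 3 independent experiments.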

Compound | EC50
COc1cc(/C=C2\SC(N(C)CC(O)CO)=NC2=O)ccc1Oc1ccc(C#N)cc1C(F)(F)F (stereo not drawn) [Compound 23, 4-(4-{2-[(2,3-Dihydroxy-propyl)-methyl-amino]-4-oxo-4H-thiazol-5-ylidenemethyl}-2-methoxy-phenoxy)-3-trifluoromethyl-benzonitrile] | 0.009 µM
COc1cc(/C=C2\SC(NCCOCCO)=NC2=O)ccc1Oc1ccc(C#N)cc1C(F)(F)F [Example 69, 4-(4-{2-[2-(2-Hydroxy-ethoxy)-ethylamino]-4-oxo-4H-thiazol-5-ylidenemethyl}-2-methoxy-phenoxy)-3-trifluoromethyl-benzonitrile] | 0.017 µM
N#Cc1ccc(Oc2ccc(/C=C3\SC(N(CCO)CCO)=NC3=O)cc2F)c(C(F)(F)F)c1 [Example 41, 4-(4-{2-[Bis-(2-hydroxy-ethyl)-amino]-4-oxo-4H-thiazol-5-ylidenemethyl}-2-fluoro-phenoxy)-3-trifluoromethyl-benzonitrile] | 0.018 µM
COc1cc(/C=C2\SC(NC[C@@H](O)CO)=NC2=O)ccc1Oc1ccc(C#N)cc1C(F)(F)F [Example 34, 4-{4-[2-(2R,3-Dihydroxy-propylamino)-4-oxo-4H-thiazol-5-ylidenemethyl]-2-methoxy-phenoxy}-3-trifluoromethyl-benzonitrile] | 0.019 µM
COc1cc(/C=C2\SC(N3CCN(C)C(=O)C3)=NC2=O)ccc1Oc1ccc(C#N)cc1C(F)(F)F [Example 94, 4-{2-Methoxy-4-[2-(4-methyl-3-oxo-piperazin-1-yl)-4-oxo-4H-thiazol-5-ylidenemethyl]-phenoxy}-3-trifluoromethyl-benzonitrile] | 0.008 µM
CCS(=O)(=O)N1CCN(C2=NC(=O)/C(=C/c3ccc(Oc4ccc(C#N)cc4C(F)(F)F)c(F)c3)S2)CC1 [Example 44, 4-{4-[2-(4-Ethanesulfonyl-piperazin-1-yl)-4-oxo-4H-thiazol-5-ylidenemethyl]-2-fluoro-phenoxy}-3-trifluoromethyl-benzonitrile] | 0.068 µM
COc1cc(/C=C2\SC(NCc3cc(F)cc(F)c3)=NC2=O)ccc1Oc1ccc(C#N)cc1C(F)(F)F [Example 85, 4-{4-[2-(3,5-Difluoro-benzylamino)-4-oxo-4H-thiazol-5-ylidenemethyl]-2-methoxy-phenoxy}-3-trifluoromethyl-benzonitrile] | 0.057 µM
COc1cc(/C=C2\SC(NC3CCN(C)CC3)=NC2=O)ccc1Oc1ccc(C#N)cc1C(F)(F)F [Compound 14, 4-{2-Methoxy-4-[2-(1-methyl-piperidin-4-ylamino)-4-oxo-4H-thiazol-5-ylidenemethyl]-phenoxy}-3-trifluoromethyl-benzonitrile] | 0.013 µM
COc1cc(/C=C2\SC(N(C)CCN)=NC2=O)ccc1Oc1ccc(C#N)cc1C(F)(F)F [Example 37, 4-(4-{2-[(2-Amino-ethyl)-methyl-amino]-4-oxo-4H-thiazol-5-ylidenemethyl}-2-methoxy-phenoxy)-3-trifluoromethyl-benzonitrile] | 0.1 µM
COc1cc(/C=C2\SC(N(C)C)=NC2=O)ccc1Oc1ccc(C#N)cc1C(F)(F)F [Example 81, 4-[4-(2-Dimethylamino-4-oxo-4H-thiazol-5-ylidenemethyl)-2-methoxy-phenoxy]-3-trifluoromethyl-benzonitrile] | 0.017 µM
COc1cc(/C=C2\SC(N(C)CC(O)CO)=NC2=O)ccc1Oc1ccc(C#N)cc1Cl (stereo not drawn) [Example 65, 3-Chloro-4-(4-{2-[(2,3-dihydroxy-propyl)-methyl-amino]-4-oxo-4H-thiazol-5-ylidenemethyl}-2-methoxy-phenoxy)-benzonitrile] | 0.089 µM
COc1cc(/C=C2\SC(N3CC(C(=O)O)C3)=NC2=O)ccc1Oc1ccccc1C(F)(F)F [Example 119, 1-{5-[3-Methoxy-4-(2-trifluoromethyl-phenoxy)-benzylidene]-4-oxo-4,5-dihydro-thiazol-2-yl}-azetidine-3-carboxylic acid] | 0.01 µM
COc1cc(/C=C2\SC(NCc3ccoc3)=NC2=O)ccc1Oc1ccc(C#N)cc1C(F)(F)F [Example 88, 4-(4-{2-[(Furan-3-ylmethyl)-amino]-4-oxo-4H-thiazol-5-ylidenemethyl}-2-methoxy-phenoxy)-3-trifluoromethyl-benzonitrile] | 0.015 µM
COc1cc(/C=C2\SC(N)=NC2=O)ccc1Oc1ccc(C#N)cc1Cl [Compound 2, 4-[4-(2-Amino-4-oxo-4H-thiazol-5-ylidenemethyl)-2-methoxy-phenoxy]-3-chloro-benzonitrile] | 0.21 µM
CN1CCN(C2=NC(=O)/C(=C/c3ccc(Oc4ccc(C#N)cc4C(F)(F)F)c(F)c3)S2)CC1=O [Example 43, 4-{2-Fluoro-4-[2-(4-methyl-3-oxo-piperazin-1-yl)-4-oxo-4H-thiazol-5-ylidenemethyl]-phenoxy}-3-trifluoromethyl-benzonitrile] | 0.022 µM
N#Cc1ccc(Oc2ccc(/C=C3\SC(NCCC4CCOCC4)=NC3=O)cc2F)c(C(F)(F)F)c1 [Example 110, 4-(2-Fluoro-4-{4-oxo-2-[2-(tetrahydro-pyran-4-yl)-ethylamino]-4H-thiazol-5-ylidenemethyl}-phenoxy)-3-trifluoromethyl-benzonitrile] | 0.026 µM
COc1cc(/C=C2\SC(N3CCOCC3)=NC2=O)ccc1Oc1ccc(C#N)cc1C(F)(F)F [Compound 5, 4-[2-Methoxy-4-(2-morpholin-4-yl-4-oxo-4H-thiazol-5-ylidenemethyl)-phenoxy]-3-trifluoromethyl-benzonitrile] | 0.02 µM
COc1cc(/C=C2\SC(N3CCCC(O)C3)=NC2=O)ccc1Oc1ccc(C(F)(F)F)cc1C(F)(F)F (stereo not drawn) [Example 58, 5-[4-(2,4-Bis-trifluoromethyl-phenoxy)-3-methoxy-benzylidene]-2-(3-hydroxy-piperidin-1-yl)-thiazol-4-one] | 0.024 µM
N#Cc1ccc(Oc2ccc(/C=C3\SC(N4CCOCC4)=NC3=O)cc2F)c(C(F)(F)F)c1 [Compound 6, 4-[2-Fluoro-4-(2-morpholin-4-yl-4-oxo-4H-thiazol-5-ylidenemethyl)-phenoxy]-3-trifluoromethyl-benzonitrile] | 0.05 µM
COc1cc(/C=C2\SC(N3CCNC(=O)C3)=NC2=O)ccc1Oc1ccc(C#N)cc1Cl [Example 64, 3-Chloro-4-{2-methoxy-4-[4-oxo-2-(3-oxo-piperazin-1-yl)-4H-thiazol-5-ylidenemethyl]-phenoxy}-benzonitrile] | 0.044 µM
CCS(=O)(=O)N1CCN(C2=NC(=O)/C(=C/c3ccc(Oc4ccc(C#N)cc4C(F)(F)F)c(OC)c3)S2)CC1 [Example 38, 4-{4-[2-(4-Ethanesulfonyl-piperazin-1-yl)-4-oxo-4H-thiazol-5-ylidenemethyl]-2-methoxy-phenoxy}-3-trifluoromethyl-benzonitrile] | 0.009 µM
COc1cc(/C=C2\SC(NCCN3CCOCC3)=NC2=O)ccc1Oc1ccc(C#N)cc1C(F)(F)F [Example 33, 4-{2-Methoxy-4-[2-(2-morpholin-4-yl-ethylamino)-4-oxo-4H-thiazol-5-ylidenemethyl]-phenoxy}-3-trifluoromethyl-benzonitrile] | 0.015 µM
COc1cc(/C=C2\SC(NCCn3cncn3)=NC2=O)ccc1Oc1ccc(C#N)cc1C(F)(F)F [Example 72, 4-{2-Methoxy-4-[4-oxo-2-(2-[1,2,4]triazol-1-yl-ethylamino)-4H-thiazol-5-ylidenemethyl]-phenoxy}-3-trifluoromethyl-benzonitrile] | 0.016 µM
CC1CN(C2=NC(=O)/C(=C/c3ccc(Oc4ccc(C#N)cc4C(F)(F)F)c(F)c3)S2)CC(C)O1 (stereo not drawn) [Example 46, 4-{4-[2-(2,6-Dimethyl-morpholin-4-yl)-4-oxo-4H-thiazol-5-ylidenemethyl]-2-fluoro-phenoxy}-3-trifluoromethyl-benzonitrile] | 0.019 µM
COc1cc(/C=C2\SC(NCC(=O)O)=NC2=O)ccc1Oc1ccc(C#N)cc1C(F)(F)F [Example 76, {5-[4-(4-Cyano-2-trifluoromethyl-phenoxy)-3-methoxy-benzylidene]-4-oxo-4,5-dihydro-thiazol-2-ylamino}-acetic acid] | 0.016 µM
COc1cc(/C=C2\SC(N3CCNC(=O)C3)=NC2=O)ccc1Oc1ccc(C(F)(F)F)cc1C(F)(F)F [Example 59, 4-{5-[4-(2,4-Bis-trifluoromethyl-phenoxy)-3-methoxy-benzylidene]-4-oxo-4,5-dihydro-thiazol-2-yl}-piperazin-2-one] | 0.14 µM
COc1cc(/C=C2\SC(NCCc3ccncc3)=NC2=O)ccc1Oc1ccc(C#N)cc1C(F)(F)F [Example 28, 4-{2-Methoxy-4-[4-oxo-2-(2-pyridin-4-yl-ethylamino)-4H-thiazol-5-ylidenemethyl]-phenoxy}-3-trifluoromethyl-benzonitrile] | 0.007 µM
COc1cc(/C=C2\SC(N3CCCC(O)C3)=NC2=O)ccc1Oc1ccc(C#N)cc1C(F)(F)F (stereo not drawn) [Example 102, 4-{4-[2-(3-Hydroxy-piperidin-1-yl)-4-oxo-4H-thiazol-5-ylidenemethyl]-2-methoxy-phenoxy}-3-trifluoromethyl-benzonitrile] | 0.029 µM
COc1cc(/C=C2\SC(NC[C@H](O)CO)=NC2=O)ccc1Oc1ccc(C#N)cc1C(F)(F)F [Example 35, 4-{4-[2-(2S,3-Dihydroxy-propylamino)-4-oxo-4H-thiazol-5-ylidenemethyl]-2-methoxy-phenoxy}-3-trifluoromethyl-benzonitrile] | 0.013 µM
COc1cc(/C=C2\SC(N3CCC(C(N)=O)CC3)=NC2=O)ccc1Oc1ccc(C#N)cc1C(F)(F)F [Example 78, 1-{5-[4-(4-Cyano-2-trifluoromethyl-phenoxy)-3-methoxy-benzylidene]-4-oxo-4,5-dihydro-thiazol-2-yl}-piperidine-4-carboxylic acid amide] | 0.014 µM
